According to patent US20120165339A1, “CYCLOPROPANE DERIVATIVES” (EISAI R&D MANAGEMENT CO., LTD., priority 2010, published 2012):

What was measured:
[1] = target: T1, OX1 (Homo sapiens, UniProt O43613); test: Antagonism PLAP reporter assay, HEK-293 cells expressing human OX1; type: cell-based; set-up: expressed in transfected cells; host or cells: HEK-293 cell line, expression vector pBabeCLIH; conditions: HEK-293, 1 nM human OX-A; IC50 converted to Ki by Cheng-Prusoff equation
T1 sequence (O43613 1-425): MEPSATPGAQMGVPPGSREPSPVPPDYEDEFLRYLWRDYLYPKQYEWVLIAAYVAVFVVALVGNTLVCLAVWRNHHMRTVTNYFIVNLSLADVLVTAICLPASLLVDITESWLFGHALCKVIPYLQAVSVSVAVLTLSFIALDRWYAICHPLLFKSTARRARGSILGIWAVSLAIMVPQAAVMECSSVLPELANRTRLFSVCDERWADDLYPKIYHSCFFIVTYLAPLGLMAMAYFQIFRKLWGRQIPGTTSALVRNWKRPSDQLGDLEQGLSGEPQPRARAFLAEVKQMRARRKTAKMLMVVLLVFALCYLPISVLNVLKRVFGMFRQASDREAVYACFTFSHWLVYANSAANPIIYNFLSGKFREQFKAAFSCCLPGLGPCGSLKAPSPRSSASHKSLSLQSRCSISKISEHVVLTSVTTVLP
Experimental: (§1) The antagonistic function of the compound of the present invention to prevent the activation of OX2 and OX1 by orexin-A (OX-A), which is a natural peptide agonist, was measured using a cell-based reporter assay. A HEK-293 cell line expressing genetically recombinant human OX2 (accession No. NM_001526.3) or a HEK-293 cell line expressing genetically recombinant human OX1 (accession No. NM_001525.2), which had pBabeCLIH as expression vector, was used. The cells were plated at a density of 10,000 cells/well onto a non-coated 96-well plate in Dulbecco's modified Eagle medium (Sigma Cat No. D6046: 10% v/v heat-inactivated fetal bovine serum was contained). The cells were cultured at 37° C. overnight, so that they could adhere to the plate. On the following day, cells were incubated with a compound of the present invention dissolved in Dulbecco's modified Eagle medium (Sigma Cat No. A8806: 0.1% w/v bovine serum albumin was contained), and added to the cell plate to reach a final concentration of 0.1% dimethyl sulfoxide.
(§2) The thus obtained mixture was incubated at room temperature for 1 hour. Thereafter, human OX-A and forskolin were dissolved in the same medium as described above, which contained fetal bovine serum albumin, and the medium was then added to the cells, resulting in a final concentration of 300 nM forskolin. Subsequently, the cells were cultured at 37° C. for approximately 18 to 24 hours. During the culture, as a result of activation of the orexin receptor and subsequent dose-dependent increase in intracellular calcium concentration, a reporter enzyme, placental alkaline phosphatase (PLAP), was expressed under the control of a CRE x4+VIP promoter in a pBabeCLcre4vPdNN vector and secreted into the culture medium supernatant. On the following day, reporter enzyme activity was detected by mixing 5 ul of the culture medium supernatant with 20 ul of detection buffer (containing 1.34 g/L sodium bicarbonate, 1.27 g/L sodium carbonate and 0.2 g/L magnesium sulfate heptahydrate in water) and 25 ul of Lumi-Phos530 reagent (Wako Pure Chemical Industries Ltd.), followed by incubating the obtained mixture light-protected at room temperature for 2 hours, before performing luminescence measurement (ARVO Reader, PerkinElmer). The Kd value of human OX-A with respect to each receptor was measured by titration from 0 to 300 nM. Then, the IC50 value of the compound of the present invention with respect to the activity of 1 nM human OX-A was converted into a Ki value (nM) using the Cheng-Prusoff equation.

[2] = target: T1, OX1; test: Orexin-receptor binding ability, [125I]-OX-A, CHO cell membranes expressing OX1; set-up: expressed in transfected cells; host or cells: CHO cells (membrane preparation); conditions: membranes of recombinant CHO cells, 0.2 nM [125I]-OX-A tracer; read-out: OX1 (IC50)
Summary of the method: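 Buffer was 25 mM HEPES pH 7.5, 1 mM CaCl2, 4.5 mM MgCl2, 0.5% BSA, 0.1% sodium azide, 0.05% Tween-20 and 0.2% DMSO. Bound radioactivity was counted by scintillation, and IC50 values were reported.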

[3] = target: T2, OX2 (Homo sapiens, UniProt O43614); test: Orexin-receptor binding ability, [125I]-OX-A, CHO cell membranes expressing OX2; set-up: expressed in transfected cells; host or cells: CHO cells (membrane preparation); conditions: membranes of recombinant CHO cells, 0.2 nM [125I]-OX-A tracer; read-out: OX2 (IC50)
T2 sequence (O43614 1-444): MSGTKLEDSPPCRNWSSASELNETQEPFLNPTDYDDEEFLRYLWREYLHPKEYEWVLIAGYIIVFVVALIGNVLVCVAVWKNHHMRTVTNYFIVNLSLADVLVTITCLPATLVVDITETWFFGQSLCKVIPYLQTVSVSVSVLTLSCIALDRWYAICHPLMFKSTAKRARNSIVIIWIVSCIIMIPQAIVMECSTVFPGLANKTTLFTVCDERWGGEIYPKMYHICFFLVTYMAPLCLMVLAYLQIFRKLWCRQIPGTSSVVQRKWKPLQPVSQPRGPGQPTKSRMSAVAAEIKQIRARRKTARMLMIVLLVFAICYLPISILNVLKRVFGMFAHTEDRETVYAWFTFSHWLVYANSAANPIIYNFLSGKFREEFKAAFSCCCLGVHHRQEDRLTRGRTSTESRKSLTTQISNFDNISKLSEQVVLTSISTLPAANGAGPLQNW
Summary of the method: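 Competition binding used membranes from recombinant CHO cells (5 μg protein/assay) with 0.2 nM [125I]-OX-A tracer and varied compound concentrations. Incubation was 30 min at room temperature in 25 mM HEPES pH 7.5 with CaCl2, MgCl2, 0.5% BSA, 0.05% Tween-20 and 0.2% DMSO. Bound radioactivity was counted by scintillation after one wash, giving IC50 (nM).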

[4] = target: T2, OX2; test: Antagonism PLAP reporter assay, HEK-293 cells expressing human OX2; type: cell-based; set-up: expressed in transfected cells; host or cells: HEK-293 cell line, expression vector pBabeCLIH; conditions: HEK-293, 1 nM human OX-A; IC50 converted to Ki by Cheng-Prusoff equation
Experimental: as §1, §2

[5] = test system: mice (C57BL/6NCrlCrLj); test: Sleep experiment (EEG/EMG) in mice; type: in vivo; conditions: oral administration, accumulated sleep over 3 hours, difference to vehicle-administration day
Experimental: As a method for measuring the influence of the present compound on sleep time, electroencephalogram (EEG) and electromyogram (EMG) measurements were carried out in mice (C57BL/6NCrlCrLj).
In order to measure brain waves and muscle signals, EEG and EMG electrode implantation was performed on individual mice, and the mice were then housed in a state in which they could freely move and habituate in individual recording cages for 1 week or longer. Thereafter, amplified EEG and EMG signals were digitally recorded.
Mice received either oral administration of vehicle or test compound in vehicle, after which sleep/wake behavior of mice was recorded for 3 hours.
For sleep analysis, automatic analysis software from Kissei Comtec Co., Ltd. was used to analyze EEG frequency and EMG activity signals in detail and to determine sleep and wake states. Thereafter, accumulated sleeping time over 3 hours was calculated.
The effect of the compound to increase sleep time was evaluated as the difference between sleeping time on the vehicle-administration day and the sleep time on the subsequent drug-administration day.

Row | Ki [1] [µM] | IC50 [2] [µM] | IC50 [3] [µM] | Ki [4] [µM] | SMILES | Sleep extended time (min/3 hrs) [5] [min/3 hrs]
1 | 0.14 | 0.098 | 0.003 | 0.01 | Cc1nc(C(F)(F)F)nn1CC[C@@]1(c2ccccc2)C[C@H]1C(=O)Nc1ccc(Cl)cn1 [Example 122] | 21.8
2 | 0.406 | 0.166 | 0.019 | 0.0314 | Cc1nc(C(F)(F)F)nn1CC[C@@]1(c2ccccc2)C[C@H]1C(=O)Nc1ccc(F)cn1 [Example 121] | 21.3
3 | > 0.467 | 0.483 | 0.046 | 0.0317 | CCn1nc(C)cc1OCC1(c2ccccc2)CC1C(=O)Nc1ccc(Cl)cn1 (stereo not shown) [Example 57] | 
4 | 0.0652 | 0.129 | 0.013 | 0.0051 | COc1ccc(OC[C@@]2(c3ccccc3)C[C@H]2C(=O)Nc2ccc(C#N)cn2)cc1OC [Example 4, (1R,2S)—N-(5-cyanopyridin-2-yl)-2-[(3,4-dimethoxyphenyl)oxymethyl]-2-phenylcyclopropanecarboxamide] | 57

More lines, now with the values behind:

Row | SMILES | Ki [1] [µM] | IC50 [2] [µM] | IC50 [3] [µM] | Ki [4] [µM] | Sleep extended time (min/3 hrs) [5] [min/3 hrs]
5 | COc1ccc(OCC2(c3ccccc3)CC2C(=O)Nc2cncc(Cl)c2)cc1OC (stereo not shown) [Example 11, N-(5-chloropyridin-3-yl)-2-[(3,4-dimethoxyphenyl)oxymethyl]-2-phenylcyclopropanecarboxamide] | 0.572 | 0.333 | 0.029 | 0.0482 | 
6 | COc1ccc(CCC2(c3ccccc3)CC2C(=O)Nc2ccccn2)cc1OC (stereo not shown) [Example 99, N-(pyridin-2-yl)-2-[2-(3,4-dimethoxyphenyl)ethyl]-2-phenylcyclopropanecarboxamide] | > 0.816 | 0.632 | 0.043 | 0.154 | 
7 | CCn1cc(OCC2(c3ccccc3)CC2C(=O)Nc2ccc(C#N)cn2)cn1 (stereo not shown) [Example 80] | > 0.467 | 0.359 | 0.054 | 0.19 | 
8 | COc1ccc(OCC2(c3ccccc3)CC2C(=O)Nc2ncc(C)s2)cc1OC (stereo not shown) [Example 22, N-(5-methyl-1,3-thiazol-2-yl)-2-[(3,4-dimethoxyphenyl)oxymethyl]-2-phenylcyclopropanecarboxamide] | > 0.816 | 0.296 | 0.035 | > 0.614 | 
9 | COc1ccc(OCC2(c3ccccc3)CC2C(=O)Nc2cc(C)ccn2)cc1OC (stereo not shown) [Example 36, N-(4-methylpyridin-2-yl)-2-[(3,4-dimethoxyphenyl)oxymethyl]-2-phenylcyclopropanecarboxamide] | 0.699 | 0.283 | 0.022 | 0.043 | 
10 | CCn1nc(C)c(Cl)c1OCC1(c2ccccc2)CC1C(=O)Nc1ccc(F)cn1 (stereo not shown) [Example 74] | > 0.467 | 0.359 | 0.03 | 0.0307 | 
